Assay results published in patent publication US20220380329A1, “A HYPERBRANCHED POLYGLYCEROL POLYGLYCIDYL ETHER AND ITS USE AS CROSSLINKER FOR POLYSACCHARIDES” (BIOPOLIMERI S.R.L., priority 2019, published 2022).

Test system: 3T3 mouse fibroblasts
Assay: MTT viability assay, cells grown in direct contact with the crosslinker
Format: cell-based
Conditions: direct contact with cross-linker solutions of same epoxy equivalents, without polysaccharide; control culture medium in NaCl 0.9%
Protocol: MTT assay was used to evaluate the viability of 3T3 mouse fibroblasts grown.
c) MTT assay on cells grown in direct contact with the crosslinker
The MTT assay was performed on cells grown in direct contact with a solution containing cross-linker solutions. The solution contains the same epoxy equivalents, following the same steps of the manufacturing process of hydrogels—such as chemical reaction, washing and sterilization, but without the addition of the polysaccharide.

## C(CCOCC1CO1)COCC1CO1 (stereo not shown) [BDDE, 1,4-butane diol diglycidyl ether]
  cell viability (MTT): significant decrease of cells viability and signs of suffering
